PMC1166555, “The therapeutic effect of the neuropeptide hormone somatostatin on Schistosoma mansoni caused liver fibrosis” (BMC Infectious Diseases, 2005)
Read-outs that look alike come from different tables or passages of the source.

Columns and labels:
[1] = cited from earlier work
[2] = dogs, animal studies; cited from earlier work
Protocol: Somatostatin has a very short half-life of 1–3 minutes in man. […] To determine the pharmacokinetic profile in outbred Swiss mice, 25 μg of somatostatin was administered per mouse via th ...

[3] = Toxicity of somatostatin administration in the study mice; assay type: in vivo; settings: Swiss mice, 90 μg/24 hours, mice about 40 g
Protocol: (§1) At such times animals of Groups 1 and 2 were treated with somatostatin (Somatostatine-ucb®), that was kindly gifted by UCB Pharma, Brussels. Somatostatin was administered in two regimens – a one-day treatment or a two-day treatment. One day treatment consisted of 3 doses of 30 μg somatostatin each, two day treatment was the double of this dose, that is 6 doses of 30 μg somatostatin to each animal. Somatostatin was administered intravenously via the caudal vein in the tail and intraperitoneally at regular intervals during the day. One week after the last somatostatin administration, mice were killed, the weight of the animal, liver and spleen were noted, plasma was extracted and stored as mentioned above, and the liver frozen immediately in liquid nitrogen and then at -80°C. The overall planning is depicted in Table 1. Untreated animals of the acute and chronic stage were also sacrificed at the respective times together with their treated counterparts. Research protocols involving rodents received ethical clearance by the University of Antwerp ethical committee.
The favorable metabolic profile of somatostatin is further supported by the fact that this compound has a very short half-life, and thus any undesirable effects may be rapidly reversed. In our experiment we have used 90 μg/24 hours in the Swiss mice that weighs about 40 g. […]

[4] = Circulating somatostatin levels in plasma at sacrifice, one week after therapy (RIA); assay type: in vivo, Swiss mice; settings: for level at 168 h: Swiss, mouse, plasma
Protocol: (§2) Groups of Swiss mice were infected with 100 S. mansoni cercariae each as mentioned above. Age matched mice were maintained as uninfected control animals. Groups of 10 mice composed Group 1 that were maintained till 10 weeks following infection, other 10 mice composed Group 2 that were maintained till 14 weeks of infection.
as §1
(§3) The measurement of somatostatin concentrations in the Swiss mice plasma was carried out in the laboratory of Gastro-intestinal Hormones, at Gasthuisberg, K.U. Leuven, by means of a radio-immuno assay (RIA). The RIA was performed by incubating the samples with 1.7 pM 3-[^125I] iodotyrosyl^11 somatostatin-14 (specific activity 2000 Ci/mmol, Amersham Pharmacia Biotech, Buckinghamshire, UK) and a rabbit antibody against human SOM [1-14] in a 50 mM sodium phosphate buffer (pH 7.4, 0.25% EDTA, 0.5% charcoal-BSA, 500 U/ml Trasylol) for at least two days at 4°C. At the end of the incubation period the SOM bound to the antibody was separated from the free SOM by adding 500 μl dextran-charcoal followed by centrifugation for 15 min at 3000 rpm. Both fractions were counted in a gamma counter and the results were read from a standard curve (0–250 pg/ml) included in the RIA. The minimal detectable dose was 2.5 pg/ml.

[5] = Liver, spleen and total body weight after somatostatin treatment; assay type: in vivo, Swiss mice
Protocol: as §2, §1
All animals of Groups I and II were controlled for liver, spleen and total body weight, before sacrifice. The adult worms were recovered from the hepatic portal system and the liver by perfusion with citrate saline (0.85% sodium chloride; 1.5% sodium citrate). The livers were cut out and snap frozen in liquid nitrogen. For cyosectioning, liver fragments were embedded in Tissue-Tek OCT compound, 4 μm thick transverse sections were cut on a cryostat, mounted on slides coated with 0.1% ploy-L-lysine and stored at -20°C until use. To study parasite egg count, hepatocyte status, granuloma size and cellularity, series of sections were stained with Haematoxylin-eosin stain.

[6] = rats; cited from earlier work
[7] = Pharmacokinetic profile of somatostatin in outbred Swiss mice (plasma, RIA); assay type: in vivo; settings: male Swiss mice; for level at 10 min: Swiss (outbred), 25 ug per mouse, 10 minutes post injection, plasma
Protocol: Separate groups of male Swiss mice were injected with 25 μg of somatostatin (somatostatin-ucb®, UCB Pharma, Brussels) intraperitoneally (in the abdomen) or intravenously (in the caudal vein in the tail). At defined moments after injection (10, 20, 40, 60 minutes) the animals were anaesthetized with Nembutal® (60 mg/kg). The thoracic cavity was cut open and blood collected from the right ventricle of the heart into chilled syringes containing EDTA (1 mg/ml) and Aprotinin (500 KIU/ml blood). The collected blood was centrifuged at 3000 rpm for 15 minutes at 0°C. The plasma was immediately frozen at -80°C freezer. Untreated naïve mice were also bled to ascertain background levels of somatostatin.
as §3
Somatostatin has a very short half-life of 1–3 minutes in man. […] To determine the pharmacokinetic profile in outbred Swiss mice, 25 μg of somatostatin was administered per mouse via the intraperitoneal or intravenous route. To assess the break down in these mice, plasma was collected at regular time intervals and circulating somatostatin levels assayed (Figure 2). At 10 minutes post injection somatostatin levels fall to 30233 pg/ml (IP) and 17413 pg/ml (IV).

[8] = studies in mice; cited from earlier work
Protocol: The favorable metabolic profile of somatostatin is further supported by the fact that this compound has a very short half-life, and thus any undesirable effects may be rapidly reversed. In our experiment we have used 90 μg/24 hours in the Swiss mice that weighs about 40 g. In humans the therapeutic dose is 3.5 μg/kg/hour or 6 mg/24 h for a 75 kg person. A comparison of these values tells ...

[9] = tested on: S. mansoni; settings: S. mansoni infected animals; cited from earlier work
Text: Taken together we have elucidated the therapeutic capacity of somatostatin in reducing hepatic fibrosis. This report in fact confirms a previous report by Mansy, where using a somatostatin synthetic analog octreotide in S. mansoni infected animals, a reduction in hepatic fibrosis was noted. Since octreotide is limited in binding to somatostatin receptors, our results with natural somatostatin that binds to all 5 somatostatin receptors equally well assures us of the anti fibrotic capacities of this neuropeptide hormone, and points to its potential use in human conditions.

[10] = acute (wk 10) infected mice, 1 day SOM treatment, one week post treatment, RIA, untreated 297.3 ± 37.24
[11] = acute (wk 10) infected mice, 2 day SOM treatment, one week post treatment, RIA, untreated 297.3 ± 37.24, p = 0.28
[12] = chronic (wk 14) infected mice, 1 day SOM treatment, one week post treatment, RIA, untreated 206.1 ± 13.30
[13] = chronic (wk 14) infected mice, 2 day SOM treatment, one week post treatment, RIA, untreated 206.1 ± 13.30, p = 0.06 (BL)
[14] = uninfected mice (17 wks.), 2 day SOM treatment, Group 1, RIA
[15] = uninfected mice (21 wks.), 2 day SOM treatment, Group 2, RIA

C[C@H](N)C(=O)NCC(=O)N[C@H]1CSSC[C@@H](C(=O)O)NC(=O)[C@H](CO)NC(=O)[C@H]([C@@H](C)O)NC(=O)[C@H](Cc2ccccc2)NC(=O)[C@H]([C@@H](C)O)NC(=O)[C@H](CCCCN)NC(=O)[C@H](Cc2c[nH]c3ccccc23)NC(=O)[C@H](Cc2ccccc2)NC(=O)[C@H](Cc2ccccc2)NC(=O)[C@H](CC(N)=O)NC(=O)[C@H](CCCCN)NC1=O [somatostatin]
time to reach plasma plateau ([1]; healthy volunteers, intravenous infusion 250 μg/hour or 6 mg/24 hours): ≤ 15 min | plasma plateau level ([1]; healthy volunteers, intravenous infusion of therapeutic dose (250 μg/hour or 6 mg/24 hours)): 300 to 3000 pg/mL | half-life ([1]; in man): 1 to 3 min | plasma profile / half-life compared with man [2]: same profile | toxicity of somatostatin administration [3]: little toxicity | level at 168 h [4, 10]: 0.24 ± 0.0213 ng/mL | level at 168 h [4, 11]: 0.234 ± 0.0236 ng/mL | level at 168 h [4, 12]: 0.226 ± 0.00541 ng/mL | level at 168 h [4, 13]: 0.248 ± 0.0131 ng/mL | level at 168 h [4, 14]: 0.137 ± 0.0117 ng/mL | level at 168 h [4, 15]: 0.152 ± 0.0415 ng/mL | level at 168 h ([4]; uninfected mice, 1 day SOM treatment, Group 2, RIA): 0.132 ± 0.0193 ng/mL | somatostatin level in plasma [4, 10]: 240.3 pg/mL | somatostatin level in plasma [4, 11]: 234.2 pg/mL | somatostatin level in plasma [4, 12]: 226.3 pg/mL | somatostatin level in plasma [4, 13]: 247.9 pg/mL | somatostatin level in plasma [4, 14]: 136.9 pg/mL | somatostatin level in plasma [4, 15]: 151.6 pg/mL | change in liver weight ([5]; acute and chronic infected animals after 2 days of somatostatin treatment vs untreated, p = 0.19, 0.90): no significant change | change in spleen weight ([5]; acute and chronic infected animals after 2 days somatostatin treatment vs untreated, p = 0.28, 0.73): no significant changes | change in total body weight ([5]; acute or chronic infected animals after somatostatin treatment): no significant changes | time stable in whole blood [6]: up to 30 minutes | level at 10 min ([7]; ip, 25 μg somatostatin per mouse intraperitoneally, read-out: circulating somatostatin level in plasma at 10 minutes post injection (IP)): 30.2 ng/mL | level at 10 min ([7]; iv, 25 μg somatostatin per mouse intravenously (caudal vein), read-out: circulating somatostatin level in plasma at 10 minutes post injection (IV)): 17.4 ng/mL | circulating somatostatin level after one hour of injection ([7]; 25 μg per mouse, IP or IV, one hour after injection): reaches baseline control levels | LD50 [8]: ~10,000 times the acute therapeutic dose used in humans

octreotide
hepatic fibrosis [9]: reduction
